From PubChem BioAssay AID1944 (The Scripps Research Institute Molecular Screening Center, 2009)
pIC50: −log10 of the molar value. Activity calls are given as the source filed them. The rule behind the calls is not given here.

target: Replicase polyprotein 1ab (Severe acute respiratory syndrome coronavirus) (UniProt P0C6X7); assay: SARS-CoV PLpro inhibitor potency, dose response, counter-screen for SARS-CoV 3CLpro inhibitor project, biochemical, luminescence (AID 1944); conditions: SARS-CoV PLpro enzymatic assay

Compound	IC50	pIC50
O=C(Nc1ccccc1)NN(C(=O)CCl)c1ccccc1	> 59.6 µM (inactive)	
Cc1nnc(SC(=O)N2c3ccccc3Sc3ccccc32)s1	> 59.6 µM (inactive)	
Cc1cc(C(=O)CCl)c(C)n1-c1cccc([N+](=O)[O-])c1	> 59.6 µM (inactive)	
Cc1cc(=O)oc2cc(NC(=O)Cc3ccccc3[N+](=O)[O-])ccc12	> 59.6 µM (inactive)	
O=C(CCl)N(CCc1ccccc1)CCc1ccccc1	inactive	
O=C(O)c1ccc2ncsc2c1		5.13
Cc1ccc(C(=O)c2c3ccc(C(F)(F)F)cc3[n+]([O-])n2CCC(N)=O)cc1	> 59.6 µM (inactive)	
O=C(/C=C/c1ccccc1Cl)Nc1cccnc1		7.41
O=C(OCC(=O)N1c2ccccc2Sc2ccccc21)c1cccnc1	> 59.6 µM (inactive)	
O=C1NC(=O)N(c2ccccc2F)C(=O)/C1=C/c1cn(CC(=O)N2CCOCC2)c2ccccc12	> 59.6 µM (inactive)	
COc1ccc(C(=O)Oc2cccnc2)cc1	> 59.6 µM (inactive)	
CN(C)S(=O)(=O)c1cccc(NC(=O)CSc2cccc3cccnc23)c1	> 59.6 µM (inactive)	
O=C(Cn1nnc2ccccc21)c1ccc(Br)cc1		5.64
Cc1ccc(C(=O)O)cc1NC(=S)NC(=O)c1ccc(COc2ccccc2)cc1		5.61
O=C1C(=O)N(CCCc2ccccc2)c2ccccc21	inactive	
COc1ccc2c(c1)C(=O)C(=O)N2CC1COc2ccccc2O1 (stereo not drawn)	> 59.6 µM (inactive)	
Cc1ccc(/C=C/C(=O)c2cc(Br)ccc2OC(=O)c2ccco2)cc1	> 59.6 µM (inactive)	
Cc1cc(NC(=O)COn2nnc3ccc(S(C)(=O)=O)cc32)ccc1Br	> 59.6 µM (inactive)	
COc1ccc(N(C(=O)Cn2nnc3ccccc32)C2(C(=O)NC3CCCC3)CCCCC2)cc1	> 59.6 µM (inactive)	
Cc1sc(NC(=O)CCl)c(C(=O)c2ccccc2)c1C	> 59.6 µM (inactive)	
Cc1cc(=O)oc2cc(OC(=O)c3ccco3)ccc12	> 59.6 µM (inactive)	
NC(=O)CCn1c(C(=O)c2ccc(Cl)cc2)c2ccccc2[n+]1[O-]	> 59.6 µM (inactive)	
CC1(C)C2CC=C(/C=N/NC(=S)Nc3cccnc3)C1C2 (stereo not drawn)	> 59.6 µM (inactive)	
COc1ccc(C2CC(c3cccs3)=NN2C(=O)CCl)cc1OC (stereo not drawn)	> 59.6 µM (inactive)	
Cc1ccc(C(=O)c2c3ccccc3[n+]([O-])n2CCC(N)=O)cc1		5.09

Compound	IC50	pIC50
COc1cc2c(cc1OC)C(c1cc(Br)ccc1F)N(C(=O)CCl)CC2 (stereo not drawn)	> 59.6 µM (inactive)	
CCc1cccc(CC)c1N(COC)C(=O)Cn1nnc2ccccc21	> 59.6 µM (inactive)	
COc1ccc(C2C(O)C(c3c[nH]c4ccccc34)=NN2C(=O)CCl)cc1 (stereo not drawn)	> 59.6 µM (inactive)	
CCC(C)c1ccc(N(C(=O)c2ccco2)C(C(=O)NC2CCCC2)c2cccnc2)cc1 (stereo not drawn)	inactive	
CC(=O)NC1C(=O)N(CCN2CCOCC2)c2ccc(F)cc21 (stereo not drawn)	> 59.6 µM (inactive)	
O=C(Oc1ccc(Cl)cc1N1C(=O)CCC1=O)c1ccco1	> 59.6 µM (inactive)	
Cc1cc(C)n(C(=O)c2ccc(C)c(Br)c2)n1	inactive	
Cc1cccc2c1N(CCOc1ccccc1)C(=O)C2=O	> 59.6 µM (inactive)	
COc1ccc(C(C(=O)NCC2CCCO2)N(C(=O)Cn2nnc3ccccc32)c2ccc(NC(C)=O)cc2)cc1 (stereo not drawn)	> 59.6 µM (inactive)	
O=C1C(=O)N(CC2COc3ccccc3O2)c2ccccc21 (stereo not drawn)	> 59.6 µM (inactive)	
CC(C)c1ccc(N(C(=O)c2csnn2)C(C(=O)NC2CCCC2)c2cccnc2)cc1 (stereo not drawn)	> 59.6 µM (inactive)	
O=C1C(=O)N(C/C=C/c2ccccc2)c2ccccc21	> 59.6 µM (inactive)	
Cc1ccc(C2=NN(C(=O)CCl)C(c3ccco3)C2)o1 (stereo not drawn)	> 59.6 µM (inactive)	
O=C(/C=C/c1c(F)cccc1Cl)Nc1cccnc1		7.20
Cc1cc(C)c(C)c(S(=O)(=O)N2CCN(C(=O)c3cc(=O)[nH]c4ccccc34)CC2)c1C	> 59.6 µM (inactive)	
O=C(/C=C/c1cccs1)Nc1scc(-c2ccccc2)c1C(=O)O		7.34
Nc1ncc(Br)cc1S(=O)(=O)Nc1cc(C(F)(F)F)cc(C(F)(F)F)c1	> 59.6 µM (inactive)	
Cc1ccc(C(=O)n2cnc3ccccc32)cc1C		5.04
NC(=O)CCn1c(C(=O)c2cc(Cl)c(N)c(Cl)c2)c2ccccc2[n+]1[O-]	> 59.6 µM (inactive)	
O=C(Cn1nnc2ccccc21)c1ccc(Cl)cc1		5.40
CCN(CC)C(=O)Cn1cc(/C=C2\C(=O)NC(=O)N(c3ccccc3F)C2=O)c2ccccc21	> 59.6 µM (inactive)	
CCC(C)(C)NC(=O)C(c1cccn1C)N(C(=O)Cn1nnc2ccccc21)c1ccc(NC(C)=O)cc1 (stereo not drawn)	> 59.6 µM (inactive)	
Cc1ccc2[nH]c3c(c2c1)CN(C(=O)CN1c2ccc(F)cc2CCC1C)CC3 (stereo not drawn)	> 59.6 µM (inactive)	
O=C(c1cc(=O)[nH]c2ccccc12)N1CCN(c2cccc(C(F)(F)F)c2)CC1	> 59.6 µM (inactive)	
O=C(O)c1[nH]c2ccccc2c1C(c1cc(Br)ccc1O)c1c(C(=O)O)[nH]c2ccccc12		5.04

Compound	IC50	pIC50
Cn1cnc2cc(NC(=O)c3ccc(Cl)cc3)ccc21		5.48
O=C(O)COc1ccc(Br)cc1C(c1c(C(=O)O)[nH]c2ccccc12)c1c(C(=O)O)[nH]c2ccccc12	inactive	
CC(=O)c1c(OC(=O)c2ccco2)c2ccccc2n1C	> 59.6 µM (inactive)	
O=C(Oc1cccnc1)c1ccc(Cl)cc1		5.10
O=C(Nc1ccc(OCC(F)(F)C(F)F)c(C(F)(F)F)c1)c1ccccc1O		6.22
O=C(Cc1ccc(Cl)c(Cl)c1)Nc1cccnc1	inactive	
CCOc1ccc2c(c1)C(=O)C(=O)N2CC1COc2ccccc2O1 (stereo not drawn)	> 59.6 µM (inactive)	
O=C(Oc1ccc(Br)cc1C(=O)/C=C/c1ccccc1F)c1ccco1	> 59.6 µM (inactive)	
O=C(NCc1ccco1)C(c1ccco1)N(C(=O)Cn1nnc2ccccc21)c1ccc2c(c1)CCC2 (stereo not drawn)	> 59.6 µM (inactive)	
Cc1ccc(C(=O)Oc2ccc3c(c2)ncn3C)cc1		6.24
COc1ccc(C(=O)n2c(SC)nc3cc4c(cc32)OCCO4)cc1		5.61
CC(=O)NC1C(=O)N(CCN2CCOCC2)c2ccc(Br)cc21 (stereo not drawn)	> 59.6 µM (inactive)	
COc1cc(C2CC(c3cccs3)=NN2C(=O)CCl)ccc1OC(F)F (stereo not drawn)	> 59.6 µM (inactive)	
COc1ccc2cc(C3(C)NC(=O)N(CC(=O)NCc4ccco4)C3=O)ccc2c1 (stereo not drawn)	> 59.6 µM (inactive)	
CC(C)c1ccc(N(C(=O)c2ccco2)C(C(=O)NC2CCCC2)c2cccnc2)cc1 (stereo not drawn)	> 59.6 µM (inactive)	
O=Cc1cn(Cc2ccccc2)nc1-c1cccnc1	> 59.6 µM (inactive)	
CCc1nc(N2CCN(C(=O)CCl)CC2)c2c3c(sc2n1)CC(C)CC3 (stereo not drawn)	> 59.6 µM (inactive)	
Cn1nc(-c2ccc(Cl)cc2)nc2c(=O)n(C)c(=O)nc1-2		6.95
CCc1ccc2c(c1)C(NC(C)=O)C(=O)N2CCN1CCOCC1 (stereo not drawn)	> 59.6 µM (inactive)	
COC(=O)c1ccc(OC(=O)CN2C(=O)c3ccccc3C2=O)cc1	inactive	
COc1cccc(C(C(=O)NCC2CCCO2)N(C(=O)Cn2nnc3ccccc32)c2ccc(NC(C)=O)cc2)c1 (stereo not drawn)	> 59.6 µM (inactive)	
CC(=O)Nc1ccc(N(C(=O)Cn2nnc3ccccc32)C(C(=O)NC2CCCC2)c2ccc(O)c(O)c2)cc1 (stereo not drawn)	> 59.6 µM (inactive)	
O=C(N/N=C\c1c(O)ccc2ccccc12)c1cncc(Br)c1		5.09
CC(=O)n1cc(N(C(=O)CCl)c2ccc([N+](=O)[O-])cc2)c2ccccc21	> 59.6 µM (inactive)	
Cc1cccc(N2CCN(C(=O)c3cc(=O)[nH]c4ccccc34)CC2)c1C	> 59.6 µM (inactive)	

Compound	IC50	pIC50
CCn1nc(-c2ccccc2)nc2c(=O)n(C)c(=O)nc1-2		6.78
CC1CCC2C(=O)N(c3cc(Cl)ccc3OC(=O)c3ccco3)C(=O)C2C1 (stereo not drawn)	> 59.6 µM (inactive)	
O=C(c1cc(=O)[nH]c2ccccc12)N1CCN(c2ccccc2)CC1	> 59.6 µM (inactive)	
Cc1cc(C)c(N(C(=O)Cn2nnc3ccccc32)C(C(=O)NC(C)(C)C)c2ccsc2)c(C)c1 (stereo not drawn)	> 59.6 µM (inactive)	
O=c1[nH]c(=O)n(-c2ccccc2F)c(O)c1/C=C1\C=Nc2ccccc21	> 59.6 µM (inactive)	
CC(=O)c1cc(-c2ccccc2)[nH]c1N1CCCC1	inactive	
CCCCOc1ccc(C(=O)Oc2cccnc2)cc1		5.79
NC(=O)CCn1c(C(=O)c2cccc([N+](=O)[O-])c2)c2ccccc2[n+]1[O-]	> 59.6 µM (inactive)	
Cc1ccc(C2CC(c3cccs3)=NN2C(=O)CCl)cc1 (stereo not drawn)	inactive	
COc1ccccc1OCCNC(=O)c1cc(=O)[nH]c2ccccc12	> 59.6 µM (inactive)	
C[C@@]12C(=O)N(c3cccc(Br)c3)C(=O)N1[C@H](c1ccc(Cl)cc1)[C@@H]1C(=O)N(C3CCCCC3)C(=O)[C@@H]12	> 59.6 µM (inactive)	
CC(C)C12CN(C(=O)c3ccccc3[N+](=O)[O-])CC(C(C)C)(CN(C(=O)c3ccccc3[N+](=O)[O-])C1)C2=O	> 59.6 µM (inactive)	
N#CCC(=O)N/N=C/c1c(-c2ccccc2)n(-c2ccccc2)c2ccccc12	> 59.6 µM (inactive)	
COc1ccccc1/C=C/C(=O)c1cc(Br)ccc1OC(=O)c1ccco1	inactive	
COc1cccc(C(C(=O)Nc2ccc(F)cc2)N(C(=O)Cn2nnc3ccccc32)C2CC2)c1 (stereo not drawn)	> 59.6 µM (inactive)	
Cc1cc(NC(=O)COC(=O)C(Nc2ccc(C(F)(F)F)cc2Cl)C(C)C)no1 (stereo not drawn)	> 59.6 µM (inactive)	
Cc1ccc(-c2cc(NC(=O)c3ccccc3[N+](=O)[O-])n[nH]2)cc1	inactive	
O=C(CSc1ccccn1)Nc1nonc1[N+](=O)[O-]	> 59.6 µM (inactive)	
COc1cc(/C=N\NC(=O)Cn2nnc3ccccc32)cc(OC)c1OC	> 59.6 µM (inactive)	
COc1ccc(N(Cc2cc(=O)[nH]c3ccccc23)C(=O)CCl)cc1	> 59.6 µM (inactive)	
COc1cccc(/C=N/NC(=S)Nc2cccnc2)c1	inactive	
CCC(C)(C)NC(=O)C(c1ccc(O)cc1)N(C(=O)Cn1nnc2ccccc21)c1ccc(NC(C)=O)cc1 (stereo not drawn)	> 59.6 µM (inactive)	
O=C(/C=C/c1ccc(Cl)c([N+](=O)[O-])c1)NCc1cccnc1	> 59.6 µM (inactive)	
